Measured values from the supplement of paper PMC10307832.

What was measured:
Assay in all cases: relative viability (nuclei count vs DMSO), 5 days (fraction); higher = more cells survive
Metformin + Dasatinib = compound: CN(C)C(=N)NC(=N)N [Metformin] + Cc1nc(Nc2ncc(C(=O)Nc3c(C)cccc3Cl)s2)cc(N2CCN(CCO)CC2)n1 [Dasatinib] (partner 0.075 µM)
Procedure, shortened: (§1)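 Medians of duplicate plates are given as relative viability. That measure is the nuclei count in treated wells divided by the count in vehicle wells. Counts were taken on 4× images of lung cancer cell lines in 1536-well plates, 5 days after pin-tool dosing the day after seeding with one drug alone or a fixed anchor-drug dose plus five library-drug doses (not always all listed) in √10 steps.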

Apatinib + Trametinib = compound: N#CC1(c2ccc(NC(=O)c3cccnc3NCc3ccncc3)cc2)CCCC1 [Apatinib] + CC(=O)Nc1cccc(-n2c(=O)n(C3CC3)c(=O)c3c(Nc4ccc(I)cc4F)n(C)c(=O)c(C)c32)c1 [Trametinib] (partner 0.02 µM)
Procedure, shortened: as §1

Apatinib + Pictilisib = compound: N#CC1(c2ccc(NC(=O)c3cccnc3NCc3ccncc3)cc2)CCCC1 [Apatinib] + CS(=O)(=O)N1CCN(Cc2cc3nc(-c4cccc5[nH]ncc45)nc(N4CCOCC4)c3s2)CC1 [Pictilisib] (partner 1 µM)
Procedure, shortened: as §1

Apatinib + Foretinib = compound: N#CC1(c2ccc(NC(=O)c3cccnc3NCc3ccncc3)cc2)CCCC1 [Apatinib] + COc1cc2c(Oc3ccc(NC(=O)C4(C(=O)Nc5ccc(F)cc5)CC4)cc3F)ccnc2cc1OCCCN1CCOCC1 [Foretinib] (partner 0.25 µM)
Procedure, shortened: as §1

Cell Line	relative viability (Metformin + Dasatinib; first compound 10 µM)	relative viability (Metformin + Dasatinib; first compound 31.62 µM)	relative viability (Metformin + Dasatinib; first compound 100 µM)	relative viability (Metformin + Dasatinib; first compound 316.23 µM)	relative viability (Metformin + Dasatinib; first compound 1000 µM)	relative viability (Apatinib + Trametinib; first compound 0.08 µM)	relative viability (Apatinib + Trametinib; first compound 0.253 µM)	relative viability (Apatinib + Trametinib; first compound 0.8 µM)	relative viability (Apatinib + Trametinib; first compound 2.53 µM)	relative viability (Apatinib + Trametinib; first compound 8 µM)	relative viability (Apatinib + Pictilisib; first compound 0.08 µM)	relative viability (Apatinib + Pictilisib; first compound 0.253 µM)	relative viability (Apatinib + Pictilisib; first compound 0.8 µM)	relative viability (Apatinib + Pictilisib; first compound 2.53 µM)	relative viability (Apatinib + Pictilisib; first compound 8 µM)	relative viability (Apatinib + Foretinib; first compound 0.08 µM)	relative viability (Apatinib + Foretinib; first compound 0.253 µM)	relative viability (Apatinib + Foretinib; first compound 0.8 µM)	relative viability (Apatinib + Foretinib; first compound 2.53 µM)	relative viability (Apatinib + Foretinib; first compound 8 µM)
NCI-H1755	0.422	0.332	0.433	0.36	0.417	0.826	0.746	0.725	0.825	0.652	0.443	0.416	0.447	0.461	0.376	0.984	0.954	0.912	0.91	0.806
LOU-NH91	0.576	0.491	0.498	0.538	0.499	0.826	0.745	0.716	0.717	0.729	0.516	0.56	0.499	0.466	0.522	0.979	0.891	0.836	0.891	0.829
LC-2-ad		0.598	0.606	0.372	0.44	0.94	0.926	0.907	0.678	0.659	0.653	0.47	0.39	0.353	0.229	0.935	0.89	0.904	0.947	0.868
ChaGo-K-1	0.742	0.712	0.637	0.501	0.722	0.902	0.93	0.862	0.837	0.691		0.999	0.721	0.638	0.725	0.991	1	0.942	0.851	0.745
COR-L 105	0.452	0.542	0.44	0.33	0.348	0.476	0.418	0.371	0.436	0.431	0.512	0.471	0.33	0.438	0.354	1.36	1.11	1.23	0.768	0.849
NCI-H2126	0.548	0.557	0.556	0.372	0.337	0.605	0.562	0.569	0.538	0.415	0.52	0.398	0.473	0.505	0.479	1.28	1.12	1.23	0.954	0.987
NCI-H2228	0.519	0.576	0.438	0.458	0.55	0.405	0.568	0.646	0.416	0.549	0.338	0.417	0.451	0.355	0.539	0.933	0.791	0.777	0.688	0.51
NCI-H520	0.24	0.195	0.265	0.195	0.217	0.666	0.66	0.787	0.485	0.325	0.281	0.268	0.301	0.314	0.275	0.865	0.72	0.844	0.558	0.651
HCC-366	0.565	0.566	0.632	0.568	0.81	0.336	0.393	0.369	0.314	0.273	0.22	0.184	0.183	0.129	0.111	0.977	0.904	0.966	0.93	0.963
EMC-BAC-2	0.37	0.312	0.323	0.334	0.395		0.869	0.887	0.818	0.799	0.561	0.593	0.572	0.516	0.527	1.08	1.12	1.04	0.919	0.858
NCI-H647	0.226	0.231	0.567	0.221	0.212	0.547	0.501	0.457	0.439	0.315	0.492	0.5	0.419	0.349	0.395	1.14	1.39	1.16	1.13	0.977
NCI-H1944	0.22	0.227	0.252	0.254	0.246	0.395	0.429	0.318	0.403	0.29	0.344	0.345	0.306	0.282	0.303	0.869	0.942	0.691	0.807	0.603
NCI-H1395	0.438	0.483	0.493	0.385	0.509	1.03	1.05	0.915	0.965	0.965	0.594	0.552	0.64	0.524	0.555	1.02	1.01	1.04	0.99	1.02
SK-MES-1	0.252	0.41	0.338	0.314	0.321	0.585	0.642	0.567	0.64	0.514	0.421	0.3	0.326	0.37	0.32	1.02	0.935	0.967	0.838	0.896
EPLC-272H	0.358	0.445	0.462	0.426	0.394	0.297	0.264	0.301	0.321	0.234	0.351	0.331	0.357	0.324	0.349	0.773		0.802	0.671	0.394
NCI-H2087		0.933	0.891	0.676	0.693	0.188	0.169	0.205	0.195	0.191	0.864	0.815	0.826	0.749	0.779	1.22	1.13	0.91	1.02	0.899
